Source: patent US20050265954A1, “Novel association, a method of its preparation and its uses” (ADAMED, Sp. z.o.o., priority 2004, published 2005)

Experiments:
[1] = Light absorption spectra and complex formation in phosphate buffer; assay type: physicochemical; conditions: phosphate buffer 0.05M, pH 8.5, chlorin p6 1.9·10^−5M
Excerpt: The absorption spectra of the above-obtained associations of polyvinylpyrrolidone with chlorin p6 in the phosphate buffer (0.05M, pH 8.5) are shown on FIG. 1 for the following chlorin p6/polyvinylpyrrolidone ratios (by weight): (1) 1:1; (2) 1:15; (3) 1:40; (4) 1:200; and (5) 1:1000. The concentration of chlorin p6 was 1.9·10^−5M in all investigated solutions.
The chlorin p6-polyvinylpyrrolidone complex has an absorption maximum in the long-wave region of visible light, and this maximum is shifted towards longer wavelengths (664 nm) compared to free chlorin p6, which has an absorption maximum at 656 nm. Therefore, the use of the association according to the invention as a photosensitizer allows for deeper penetration of radiation into biological tissues, which allows for treating solid tumors and/or deeply located lesions.
Formation of the complex of polyvinylpyrrolidone with chlorin p6 results in a series of changes in the absorption spectrum. […]
FIG. 2 presents the experimentally obtained percent of red shift of the absorption maximum of the complex in relation to the content of polyvinylpyrrolidone. […] The spectra were recorded for a series of the solutions of the complex in the phosphate buffer (pH 8.5) at the chlorin p6 concentration of 1.9·10^−5M.

Pliss' lymphosarcoma = test: Tumor necrosis after photodynamic therapy, Pliss' lymphosarcoma; assay type: in vivo; conditions: rats, photosensitizer 2.5 mg/kg, laser 660 nm, 50 J/cm^2
Procedure: The studies were performed on white not-inbred laboratory rats having subcutaneously implanted tumors (Pliss' lymphosarcoma). The dose of the administered photosensitizer was 2.5 mg/kg. The necrosis area was estimated based on the functional condition of the tumor's vascular system following laser irradiation (660 nm) at the radiation dose of 50 J/cm^2, when accumulation of the photosensitizer was the highest.
After 24 hours since the photodynamic therapy, the animals were intravenously given a solution of Evans blue in physiologic saline at the dose of 1.0 ml/100 g of body weight.

[2] = system: Walker-256 carcinosarcoma; test: Inhibition of neoplasm's growth, Walker-256 carcinosarcoma; assay type: in vivo, rats; conditions: 2.5 mg/kg intraperitoneally, 200 J/cm^2
Procedure: The use of the association according to the invention allows to achieve a high level of the tumor growth inhibition. In order to confirm this effect, the studies were performed using white rats with implanted neoplasms (Walker-256 carcinosarcoma). A solution of the photosensitizer was administered intraperitoneally at doses of 2.5 mg/kg and the tumor was […] at the radiation dose of 200 J/cm^2. The observation was continued for 21 days following the therapy. FIG. 3 and Table 7 show the dynamics of changes of the absolute rate of the tumor growth, resulting from the use of the association according to the invention (1:15) as well as free chlorin p6. The control group consisted of untreated animals.

[3] = reference standard; cited from earlier work

| Absorption maximum in the long-wave region of visible light [1] [nm] | SMILES | Depth of necrosis (Pliss' lymphosarcoma) [mm] | Necrosis area (Pliss' lymphosarcoma) [%] | Neoplasm's growth ([2]; 3 days after photodynamic therapy) [%] | Neoplasm's growth ([2]; 7 days after photodynamic therapy) [%] | Neoplasm's growth ([2]; 10 days after photodynamic therapy) [%] | Neoplasm's growth ([2]; 14 days after photodynamic therapy) [%] | Neoplasm's growth ([2]; 21 days after photodynamic therapy) [%] | Resumption of tumor growth following the therapy ([2]; observation 21 days) | Quantum yield of the singlet-state oxygen (φλ) of the reference solution [3] |
| --- | --- | --- | --- | --- | --- | --- | --- | --- | --- | --- |
| 656 | C=Cc1c(C)c2cc3nc(c(C(=O)O)c4[nH]c(cc5nc(cc1[nH]2)C(C)=C5CC)c(C)c4C(=O)O)[C@@H](CCC(=O)O)[C@@H]3C (relative stereo) [chlorin p6, 13-carboxy-17-[2-carboxyethyl]-15-carboxy-17,18-trans-dihydro-3-vinyl-8-ethyl-2,7,12,18-tetramethylporphyrin] | 7 | 46.3 | 0 | 0 | 3 | 8 | 12 | the tumor growth resumes after 10 days | – |
| – | O=S(=O)([O-])c1ccc(-c2c3nc(c(-c4ccc(S(=O)(=O)[O-])cc4)c4ccc([nH]4)c(-c4ccc(S(=O)(=O)[O-])cc4)c4nc(c(-c5ccc(S(=O)(=O)[O-])cc5)c5ccc2[nH]5)C=C4)C=C3)cc1.[Na+].[Na+].[Na+].[Na+] [TSFP, tetrasodium phenylporphyrintetrasulfonate] | – | – | – | – | – | – | – | – | 0.7 |
